# Data taken from patent publication US11564975B2, “Use of GHRP-6 as late cardioprotective and cardiac restoration medicament” (Centro de Ingeniería Genética y Biotecnología, priority 2018, dated 2023).
# Several values for one entry are separate records, joined by “and”; a condition that tells them apart may be missing. Equal values may be shown once. Entries after “also recorded” stand apart in the source; their conditions may differ.
# Experiments:
# [1] = tested on: AMI with a ST Segment elevation; experiment: AMI in pigs, one hour circumflex artery clamping followed by reperfusion; type: in vivo, female pigs of the Yorkshire breed; conditions: for Infarction Area (%): day 10
# Description: (§1) The objective of the study was to evaluate, and to compare, the therapeutic impact of the late administration of GHRP-6 on functional parameters of the left ventricle, regarding the effect of the peptide acutely administered. Another objective was to assess the effect of late treatment in a group of animals in which the reperfusion was not performed.
# (§2) The implementation of the AMI was performed in female pigs of the Yorkshire breed, with body weight of 22-27 kg. The anesthesia was induced with propofol, midazolam and pancuronium, by intravenous route. Under general anesthesia, obtained with a mixture of isofluorane/oxygen and nitrous oxide the ischemia was provoked. It was induced by a thoracotomy between the fifth and sixth intercostal spaces, until reaching the left circumflex artery, which was occluded by a 30 mm arterial clamping for one hour. Immediately, the record of the electrocardiogram and the heart rate was taken, every 20 seconds. At the end of 60 minutes of occlusion, the clamping was released, and so began the reperfusion phase, to complete the 10 days after ischemia. For the experimental group without reperfusion, that simulates the state called as non-reflux, a permanent ligation of the circumflex artery, with surgical thread, was performed. Both procedures, clamping and permanent ligation, induce an AMI with a ST Segment elevation. The recording of heart rate and electrocardiogram continued until the superficial suture of the thorax. The animals were sacrificed, by exsanguination, on the tenth day after the ischemia episode was induced. Under an anesthetic overdose, the determination of the area of the AMI was made, by means of the calculation of the area at risk with Evans blue.
# (§3) For the echocardiographic evaluation, the pigs were previously sedated with a mixture of propofol/midazolam. A Kontron ultrasound system, Sigma 1 AC Cardio model, equipped with 3.5-7.5 MHz mechanical-cardiac sector transducers was used.
# (§4) The parameters evaluated were the following: • Left Ventricle Ejection Fraction (LVEF), estimated by the Teich method. • Left Ventricle Tele-Systolic and Tele-diastolic Pressures. • Infarction Area, estimated on the area at risk (%).
# (§5) Seven animals per group were used. In all groups, the animals received treatment every 12 hours, for 10 days after ischemia. The administrations of GHRP-6 or placebo were performed through a central catheter. In the case of the groups that received the peptide, it was diluted in 10 ml of physiological saline. The essence of the study was to evaluate the influence of the time of initiation of treatment on functional parameters and size of the ventricular not viable territory.
# [2] = tested on: AMI with a ST Segment elevation; experiment: AMI in pigs without reperfusion (non-reflux), permanent ligation of the circumflex artery; type: in vivo, female pigs of the Yorkshire breed
# Description: as §1, §2, §3, §4, §5
# [3] = tested on: AMI with ST segment elevation; experiment: First cohort: patients with AMI with ST segment elevation, GHRP-6 immediately after angioplasty; type: in vivo, human
# Description: First cohort. Comprising 19 patients over 30 years old, of both sexes, with a diagnosis of AMI with ST segment elevation, all with occlusion of the anterior descending artery, first episode, who arrived at a cardiology department before 12 hours of implantation of the precordial pain. The average door-ball time was 6 hours. All patients received primary percutaneous transluminal angioplasty, and immediately after the culprit artery flow was restored they received treatment with GHRP-6. In some patients, the treatment was performed by intra-coronary flushing, after the flow was restored. Residual lesions occupied less than 25% of the initial occlusion area, so it was considered as a TIMI 3, according to the Coronary Risk Score known as TIMI. In other cases, the first administration was performed by a central-venous route, just at the time of reperfusion, in the hemodynamic room. GHRP-6 was administered at a dose of 100 μg/kg of body weight, twice a day, for 7 days, time spent in the coronary intensive care hospital room. […]
# [4] = tested on: AMI with elevated ST segment; experiment: Second cohort: AMI patients with low cardiac output syndrome / cardiogenic shock, late treatment with GHRP-6; type: in vivo, human; conditions: for LVEF: individual patients, late treatment, echocardiography at 90 days
# Description: Second cohort. Comprising 13 patients over 30 years old, of both sexes, with a diagnosis of AMI with elevated ST segment, who received percutaneous transluminal angioplasty before 12 hours of implantation of precordial pain. All these patients evolved in an unfavorable way, and with uncertain prognosis between 24 and 96 hours after a successful endoluminal reperfusion, according to the imaging criteria all were considered as TIMI grade 3.
# This led to the decision of establishing an alternative treatment with GHRP-6, to try to reduce dyskinesia of the ventricular musculature, to attenuate the process of presumed stunning, to dampen hypoxia, and to rescue from death a territory of ischemic ventricular mass. The patients who implanted a reinfarction received rescue angioplasty. One of these patients died during the procedure. None of the patients met criteria for the coronary revascularization practice. In these cases, the first administration of the peptide was carried out at least after 48 hours of torpid evolution after a TIMI 3. During the treatment time, the GHRP-6 was administered intravenously, every 12 hours.
# [5] = tested on: Grade IV heart failure; experiment: Compassionate treatment of patients with Grade IV heart failure awaiting heart transplantation; type: in vivo, human; conditions: for Cardiac output (L/m) / LVEF % / Oxygen consumption / Systolic volume: individual patients
# Text: This is a cohort of 7 patients, who received the compassionate treatment with GHRP-6, under informed consent. All patients were in advanced heart failure, evaluated as functional class grade IV, according to the scale of the New York Heart Association. These patients were hospitalized in specialized cardiology services of two hospitals, and the ischemic heart disease, the idiopathic dilated cardiomyopathy, the heart valve disease, and the postpartum dilated cardiomyopathy were considered as the underlying condition for heart failure. […] They had minimal effort dyspnea, inability to adequately fulfill the 6 minutes' walk test, and instability in fluid balance and renal function, despite the diet control and the treatment with diuretics, the restriction of salt and the monitoring body weight.
# All patients received between 50 and 200 μg of GHRP-6/kg body weight, two or three times a day, according to medical criteria, by intravenous route. All treatments were performed while the patients were awaiting for heart transplantation. The treatment period with GHRP-6 was between 25 days and 30 days per cycle.
# A cycle of treatment with GHRP-6 was performed every three months. The maximum was three cycles. All patients were maintained with previous medical treatments, based on digital, diuretics, renin-angiotensin-aldosterone axis inhibitors (neurohormones) and pressor amines when required.
# [6] = Group 2: 400 μg/kg every 12 h for 10 days, onset immediately at the beginning of reperfusion
# [7] = Group 3: 400 μg/kg every 12 h, onset 72 hours after the start of reperfusion
# [8] = Group 4: 400 μg/kg every 12 h, onset 5 days after the start of reperfusion
# [9] = Group 5: no reperfusion, 400 μg/kg every 12 h, onset one hour after the artery was permanently clamped
# [10] = 30 days after PTA, 100 μg/kg twice a day for 7 days
# [11] = 90 days after PTA, 100 μg/kg twice a day for 7 days
# [12] = start of treatment, minutes after the PTA (baseline)
# [13] = after treatment, 50-200 μg/kg two or three times a day intravenously
substance,measurement,setting,value
growth hormone releasing peptide-6 [GHRP-6],LV telediastolic pressure (mmHg),[1]; [6],4.6 ± 1.1 mmHg
same,LV telesystolic pressure (mmHg),[1]; [6],80 ± 2.2 mmHg
same,LVEF %,[1]; [6],80 ± 2.5%
same,Infarction Area (%),[1]; [6],31.6 ± 5.2%
same,LV telediastolic pressure (mmHg),[1]; [7],4.4 ± 1.6 mmHg
same,LV telesystolic pressure (mmHg),[1]; [7],81 ± 3.0 mmHg
same,LVEF %,[1]; [7],77 ± 4.1%
same,Infarction Area (%),[1]; [7],35.4 ± 6.4%
same,LV telediastolic pressure (mmHg),[1]; [8],5.2 ± 0.8 mmHg
same,LV telesystolic pressure (mmHg),[1]; [8],77 ± 3.1 mmHg
same,LVEF %,[1]; [8],60 ± 6.6%
same,Infarction Area (%),[1]; [8],37.0 ± 4.3%
same,diastolic pressure compared to the placebo group,"[1]; all groups that received GHRP-6, regardless of when treatment started",significant reduction
same,LVEF rescued,"[1]; medicated from 5 days after the ischemic event, versus placebo",22%
same,decline of LVEF compared to baseline physiological conditions,[1]; start of treatment on the fifth day,21%
same,infarct size effect: treatment in parallel to reperfusion versus started 72 hours later,[1]; statistical comparison of Groups 2 and 3,no significant statistically differences
same,ventricular territory (area at risk) rescued from death,[1]; treatment initiated on the 5th day after ischemia,8%
same,reduction of the size of myocardial infarction in comparison to placebo,[1]; treatment started 72 hours after reperfusion,~13%
same,LV telediastolic pressure (mmHg),[2]; [9],5.1 ± 1.9 mmHg
same,LV telesystolic pressure (mmHg),[2]; [9],80 ± 2.6 mmHg
same,LVEF %,[2]; [9],72 ± 5.5%
same,Infarction Area (%),"[2]; Group 5: no reperfusion, 400 μg/kg every 12 h, onset one hour after the artery was permanently clamped, day 10",36.1 ± 2.8%
same,reduction of the area of ventricular death,[2]; no reperfusion,12%
same,LVEF difference with baseline conditions,"[2]; non-reflux group, without reperfusion",9%
same,LVEF %,[3]; [10],51 ± 8.6%
same,SPWT (mm),[3]; [10],11.6 ± 0.7 mm
same,SSF %,[3]; [10],35 ± 6.5%
same,SST (mm),[3]; [10],10.3 ± 1.6 mm
same,Telediastolic volumen,[3]; [10],87 ± 11 mL
same,Telesystolic volume,[3]; [10],65 ± 23 mL
same,LVEF %,[3]; [11],57 ± 6.6%
same,SPWT (mm),[3]; [11],11.3 ± 1.8 mm
same,SSF %,[3]; [11],42 ± 9.6%
same,SST (mm),[3]; [11],10.7 ± 1 mm
same,Telediastolic volumen,[3]; [11],111 ± 16 mL
same,Telesystolic volume,[3]; [11],49 ± 8 mL
same,LVEF %. Mean ± SD,"[3]; Cohort 1, acute treatment, 90 days after treatment",57.0 ± 6.61%
same,clinical evolution of the patients,"[3]; first cohort, GHRP-6 after successful angioplasty (TIMI 3)","favorable evolution, without further important complications; also recorded: progressive improvement over time"
same,LVEF %,[3]; [12],38 ± 5.9%
same,SSF %,[3]; [12],27 ± 2.6%
same,Telediastolic volumen,[3]; [12],81 ± 14 mL
same,Telesystolic volume,[3]; [12],77 ± 12 mL
same,SPWT (mm),"[3]; start of treatment, minutes after the PTA (baseline), echocardiography",10.1 ± 2 mm
same,LVEF %. Mean ± SD,"[4]; Cohort 2, late treatment, 90 days after treatment",50.8 ± 5.34%
same,interval to suspension of vasopressor amines,[4]; after start of peptide treatment,~96 h
same,LVEF,[4]; 100 μg/kg every 12 hours,LVEF of 63%; also recorded: LVEF of 48%; also recorded: LVEF of 50%; also recorded: LVEF of 52%; also recorded: LVEF of 56%; also recorded: LVEF of 45%
same,LVEF,[4]; 200 μg/kg every 12 hours,LVEF of 47%; also recorded: LVEF of 51%; also recorded: LVEF of 46%
same,patients in whom suspension of vasopressor amines was achieved,"[4]; patients evaluated, after start of peptide treatment",8 out of 10
same,surviving patients of the 13 critical patients,[4]; second cohort,12
same,overall response to treatment,[5]; Grade IV heart failure patients in the transplant pool,"restore cardiac, hemodynamic, ventilatory and clinical constants"
same,Cardiac output (L/m),[5]; [13],4.3 L/m and 3.8 L/m and 2.9 L/m and 3.2 L/m (2×) and 3.08 L/m and 2.89 L/m
same,LVEF %,[5]; [13],28% and 30% and 29% and 23% and 25% and 31% and 26%
same,Oxygen consumption,[5]; [13],7.7 mL/min/kg and 7 mL/min/kg and 6.4 mL/min/kg and 7.2 mL/min/kg and 7.6 mL/min/kg and 6.6 mL/min/kg and 9.5 mL/min/kg
same,Systolic volume,"[5]; after treatment, 50-200 μg/kg two or three times a day intravenously, in mL (unit assumed)",50 and 54 and 60 and 56 and 49 and 47 and 51
same,Cardiac output (L/m),[5]; before treatment,3.2 L/m and 2.7 L/m and 1.89 L/m and 2.17 L/m and 2.41 L/m and 2.1 L/m and 1.98 L/m
same,LVEF %,[5]; before treatment,20% (2×) and 19% and 21% (2×) and 22% and 18%
same,Oxygen consumption,[5]; before treatment,4.12 mL/min/kg and 3.91 mL/min/kg and 3.05 mL/min/kg and 4.1 mL/min/kg and 3.87 mL/min/kg and 4.2 mL/min/kg and 3.63 mL/min/kg
same,Systolic volume,[5]; before treatment,29 (2×) and 30 and 31 and 35 and 25 and 27
